According to paper PMC4163096 (Bioorganic & medicinal chemistry letters, 2014):
Read-outs that look alike come from different tables or passages of the source. Each block holds one compound with its values, some of them ahead of it.

Key:
[1] = biological target: T1, TSPO (Rattus norvegicus, UniProt P16257); details: cited from earlier work; for Ki: read-out: Ki for TSPO in C6 glioma, C6 glioma
[2] = Radio-TLC analysis of plasma samples taken during PET scan; format: in vivo, male Wistar rats; details: samples at 2, 12, 30, 60 min, n=2, preliminary
[3] = biological target: T1, TSPO; assay: Radiometric TSPO binding assay, [3H]PK11195 displacement in heart lysate; design: species or system athymic nude rat; details: for Ki: read-out: Heart Ki, versus [3H]PK11195, Ki ± S.E.M., triplicate
[4] = biological target: T1, TSPO; assay: Radiometric TSPO binding assay, [3H]PK11195 displacement in kidney lysate; design: species or system athymic nude rat; details: read-out: Kidney Ki, low-affinity binding (mixed affinity binding), versus [3H]PK11195, Ki ± S.E.M., low-affinity component

SMILES: CCc1cc(CC)n2nc(-c3ccc(OCCF)cc3)c(CC(=O)N(CC)CC)c2n1 [2b]
- Ki [1]: 0.27 nM

SMILES: CCc1cc(CC)n2nc(-c3ccc(OCC[18F])cc3)c(CC(=O)N(CC)CC)c2n1 [[^18F]-2b, 2-(5,7-diethyl-2-(4-(2-[^18F]fluoroethoxy)phenyl)pyrazolo[1,5-a]pyrimidin-3-yl)-N,N– diethylacetamide]
- enhancement in affinity compared to [18F]-2a ([1]; TSPO affinity): 36 fold

- % parent at 60 min [2]: > 90%
SMILES: CN(C)C(=O)Cc1nn(-c2cccc([18F])n2)c(=O)c2c1c1ccc(Cl)cc1n2C [[^18F]-14, 7-chloro-N,N,5-trimethyl-4-oxo-3(6-[^18F]fluoropyridin-2-yl)-3,5-dihydro-4H-pyridazino[4,5-b]indole-1-acetamide]

SMILES: COc1ccc(OC)c(CN(C(=O)CF)c2ccccc2Oc2ccccc2)c1 [compound 1]
- Ki [1]: 6.17 nM

- Ki [3]: 0.00118 ± 9e-05 nM
SMILES: CN(C)C(=O)Cc1nn(-c2cccc([N+](=O)[O-])c2)c(=O)c2c1c1ccc(Cl)cc1n2C [compound 11]

- Ki [4]: 0.969 nM
SMILES: CN(C)C(=O)Cc1nn(-c2ccc(F)cc2)c(=O)c2c1c1ccc(Cl)cc1n2C [compound 12]

- Ki [3]: 4.94 ± 0.662 nM
- Heart Ki ([3]; versus [3H]PK11195, Ki ± S.E.M., triplicate): did not appreciably bind TSPO
SMILES: CN(C)C(=O)Cc1nn(-c2ccccn2)c(=O)c2c1c1ccc(Cl)cc1n2C [compound 13]
